Assay results taken from patent US9180139B2, “Regulator, pharmaceutical composition encompassing the regulator and application thereof” (NATIONAL CHENG KUNG UNIVERSITY, priority 2012, dated 2015).

How the values were obtained:
β3 integrin = assay: Expression of β3 integrin after shRNA transfection; assay type: cell-based, human; conditions: TSGH8301 and TSGH8301/EMP2-2 cell lines
Text: (§1) These two cell lines were transfected with small hairpin RNAs (shRNA) against αV and β3 integrins, respectively. In brief, TSGH8301 and TSGH8301/EMP2-2 cell lines were transfected with shRNAs of A1 or C1 against β3 integrin, shRNAs of H1 or G1 against αV integrin. The mRNA of EMP2 and TBP of these transfected cell lines were harvested for quantification by real-time PCR. The sequences of shRNAs of A1 (SEQ ID NO. 1), C1 (SEQ ID NO. 2), H1 (SEQ ID NO. 3) and G1 (SEQ ID NO. 4) are 5′-[…] CATAATGTTTTT-3′, 5′-[…] AACAGGGTTTTT-3′, 5′-[…] GTAAGGCTTTTTG-3′ and 5′-[…] TCCCTCGTTTTTG-3′, respectively. After transfections of shRNAs of A1, C1, H1 and G1, expressions of αV and β3 integrins in TSGH8301 and TSGH8301/EMP2-2 cell lines were repressed correspondingly. Besides, mRNA expression of EMP2 and TBP in TSGH8301 and TSGH8301/EMP2-2 cell lines without transfection was taken as controls (Ctl).

αV integrin = assay: Expression of αV integrin after shRNA transfection; assay type: cell-based, human; conditions: TSGH8301 and TSGH8301/EMP2-2 cell lines
Text: as §1

[1] = tested on: EMP2 mRNA expression of TSGH8301 human bladder cancer cell line; assay: Relative quantification of EMP2 mRNA expression in TSGH8301 cells incubated with genistein; assay type: cell-based
Experimental: TSGH8301 cell lines were initially incubated with mediums containing 2 μM, 5 μM and 10 μM of genistein, respectively, and the respective EMP2 mRNA expressions was measured at sixth day, wherein mRNA expressions of housekeeping gene was taken as the baseline control.
TSGH8301 cells were initially incubated with medium containing 15 μM of genistein and EMP2 mRNA expressions were measured at second, fourth and sixth days, respectively, wherein mRNA expressions of housekeeping gene of TSGH8301 cell lines were taken as the baseline control. With increase of incubating durations, EMP2 mRNA expression of TSGH8301 cells incubated with genistein was increased as shown in FIG. 3.

[2] = tested on: EMP2 mRNA expression of RT4 bladder cancer cell line; assay: Northern blotting of EMP2 mRNA expression in RT4 cells treated with genistein; assay type: cell-based; conditions: genistein 10 μg/mL, 24 hours, normalized to β-actin
Experimental: FIG. 1A is a northern blotting figure showing the respective EMP2 mRNA expressions of RT4 bladder cancer cell line treated with genistein (10 μg/mL) for 24 hours (Isoflavone treatment group) or not (Control group).
Please refer to FIG. 1A which is a northern blotting figure. […] That is, genistein, the isoflavone compound, can up-regulate the EMP2 mRNA expression of RT4 cells.

C1: shRNA against β3 integrin, 5′-CCGGCCCTGTTACAATATGAAGAATCTCGAGATTCTTCATATTGT AACAGGGTTTTT-3′ (CCGGCCCTGTTACAATATGAAGAATCTCGAGATTCTTCATATTGTAACAGGGTTTTT)
expression of β3 integrin after shRNA transfection (β3 integrin): repressed

G1: shRNA against αV integrin, 5′-CCGGCGAGGGAAGTTACTTCGGATTCTCGAGAATCCGAAGTAACT TCCCTCGTTTTTG-3′ (CCGGCGAGGGAAGTTACTTCGGATTCTCGAGAATCCGAAGTAACTTCCCTCGTTTTTG)
expression of αV integrin after shRNA transfection (αV integrin): repressed

H1: shRNA against αV integrin, 5′-CCGGGCCTTACAAATACAACAACAACTCGAGTTGTTGTTGTATTT GTAAGGCTTTTTG-3′ (CCGGGCCTTACAAATACAACAACAACTCGAGTTGTTGTTGTATTTGTAAGGCTTTTTG)
expression of αV integrin after shRNA transfection (αV integrin): repressed

A1: shRNA against β3 integrin, 5′-CCGGCATTATGTTTACAGAGGACAACTCGAGTTGTCCTCTGTAAA CATAATGTTTTT-3′ (CCGGCATTATGTTTACAGAGGACAACTCGAGTTGTCCTCTGTAAACATAATGTTTTT)
expression of β3 integrin after shRNA transfection (β3 integrin): repressed

O=c1c(-c2ccc(O)cc2)coc2cc(O)cc(O)c12 [genistein]
EMP2 mRNA expression, dependence on genistein concentration ([1]; 2 μM, 5 μM and 10 μM genistein, measured at sixth day, P=0.03 two way ANOVA): dose-dependent up-regulation | EMP2 mRNA expression, dependence on incubating duration ([1]; 15 μM genistein, measured at second, fourth and sixth days, P=0.03 one way ANOVA): time-dependent up-regulation | EMP2 mRNA expression compared with Control group (defined as 1) [2]: up to 3.5 times
